# In PubChem BioAssay AID624065 (The Scripps Research Institute Molecular Screening Center, 2012):
# Activity calls are given as the source filed them. No rule for the calls is given here.
# Biological target: Insulin-degrading enzyme (Homo sapiens) (UniProt P14735)
# Experiment: IDE insulin-degradation inhibitors, late-stage follow-up, counter-screen for IDE inhibitor project, biochemical, TR-FRET, recombinant IDE (AID 624065)
# Chain of Insulin-degrading enzyme (Homo sapiens) (P14735 whole entry, looked up): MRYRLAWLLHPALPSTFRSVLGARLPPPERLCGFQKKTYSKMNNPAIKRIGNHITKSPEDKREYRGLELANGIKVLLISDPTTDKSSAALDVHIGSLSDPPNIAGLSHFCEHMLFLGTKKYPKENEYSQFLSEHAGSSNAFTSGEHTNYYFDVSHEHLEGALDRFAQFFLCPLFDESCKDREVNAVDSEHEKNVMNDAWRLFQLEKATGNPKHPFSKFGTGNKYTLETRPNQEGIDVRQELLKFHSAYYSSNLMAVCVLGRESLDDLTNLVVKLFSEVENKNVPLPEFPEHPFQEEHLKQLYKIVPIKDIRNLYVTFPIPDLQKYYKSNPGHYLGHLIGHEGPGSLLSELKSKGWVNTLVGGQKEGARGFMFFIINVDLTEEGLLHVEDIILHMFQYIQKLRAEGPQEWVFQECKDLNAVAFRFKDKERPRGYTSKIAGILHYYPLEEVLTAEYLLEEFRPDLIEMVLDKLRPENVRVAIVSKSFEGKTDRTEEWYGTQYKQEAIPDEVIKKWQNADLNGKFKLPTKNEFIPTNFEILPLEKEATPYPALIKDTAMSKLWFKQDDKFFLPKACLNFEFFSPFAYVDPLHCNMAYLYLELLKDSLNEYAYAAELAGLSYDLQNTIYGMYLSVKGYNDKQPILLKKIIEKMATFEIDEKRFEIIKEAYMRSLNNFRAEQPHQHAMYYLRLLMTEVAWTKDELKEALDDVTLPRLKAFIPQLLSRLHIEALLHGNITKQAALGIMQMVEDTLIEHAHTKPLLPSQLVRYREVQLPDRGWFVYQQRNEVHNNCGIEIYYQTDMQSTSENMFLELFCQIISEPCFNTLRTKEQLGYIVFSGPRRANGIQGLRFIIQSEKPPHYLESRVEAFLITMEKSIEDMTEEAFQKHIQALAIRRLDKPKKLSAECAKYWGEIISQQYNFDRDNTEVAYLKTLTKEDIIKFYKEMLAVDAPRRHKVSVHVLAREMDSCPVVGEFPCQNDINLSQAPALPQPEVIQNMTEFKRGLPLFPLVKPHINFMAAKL
row,Structure (SMILES),IC50
1,COc1ccc(C(=O)N2CCN(C(=O)C3COc4ccccc4O3)CC2)cc1OC (stereo unspecified),4.1 µM
2,Cn1c(=O)c(C(=O)CN2CCCc3ccccc32)c(N)n(Cc2ccccc2)c1=O,> 10 µM (inactive)
3,CCN(CC)c1ccc(/C=C2\C(=N)N3N=C(CC(=O)N4CCOCC4)SC3=NC2=O)cc1,> 10 µM (inactive)
4,O=c1c2ccccc2sn1-c1cc(S(=O)(=O)N2CCOCC2)ccc1N1CCOCC1,4 µM
5,O=C(C1CC1)N1CCN(c2ccnc3cc(Cl)ccc23)CC1,> 10 µM (inactive)
6,CCOc1ccc2[nH]c3c(N4CCN(C(=O)c5ccco5)CC4)ncnc3c2c1,> 10 µM (inactive)
7,COc1cc(/C=C2\SC(=S)N(NC(C)=O)C2=O)ccc1OC(=O)c1ccco1,> 10 µM (inactive)
8,Cc1c(CCC(=O)NCCCn2ccnc2)c(=O)oc2cc3oc4c(c3cc12)CCCC4,> 10 µM (inactive)
9,Cc1ccc(C)c(N2C(=N)S/C(=C\c3ccc(-c4ccccc4C(=O)O)o3)C2=O)c1,> 10 µM (inactive)

# Next, values leading:
row,IC50,Structure (SMILES)
1,> 10 µM (inactive),COc1cccc(-c2nnc(SCc3nc4ccccc4[nH]3)n2Cc2ccco2)c1
2,4 µM,O=C(O)c1ccccc1NS(=O)(=O)c1cccc(-n2sc3ccccc3c2=O)c1
3,> 10 µM (inactive),O=C(Nc1ccc2oc(-c3cccnc3)nc2c1)c1ccc2c(c1)OCCO2
4,> 10 µM (inactive),Cc1cccc(-c2nnc(SCc3nc4ccccc4[nH]3)n2Cc2ccco2)c1
5,> 10 µM (inactive),O=C(Nc1cccc(C(F)(F)F)c1)c1csc(-c2ccncc2)n1
6,> 10 µM (inactive),Nc1c(C(=O)Nc2nccs2)sc2nc(-c3cccs3)cc(C(F)(F)F)c12
7,> 10 µM (inactive),Clc1cccc(-c2nnc(SCc3nc4ccccc4[nH]3)n2Cc2ccco2)c1
